Measurements: ChEMBL document CHEMBL1201862, “PubChem BioAssay data set” (2004)
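These data come from cells grown in 96-well plates and exposed to compound for 48 hours at five concentrations. The concentration for 50% growth inhibition is given as GI50.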 Activity calls are given as the source filed them. No stated cut-off is given here; in the data, active = GI50 up to about 1.1 µM and inactive = higher.

Legend:
Assay in all cases: NCI-60 cell line screen, 48 h
HCC 2998 = test system: HCC 2998
KM-20L2 = test system: KM-20L2
DMS-114 = test system: DMS-114
HCT-15 = test system: HCT-15
DLD-1 = test system: DLD-1
OVCAR-4 = test system: OVCAR-4
K562 = test system: K562
SK-MEL-28 = test system: SK-MEL-28
NCI-H23 = test system: NCI-H23
IGROV-1 = test system: IGROV-1
CAKI-1 = test system: CAKI-1
U-251 = test system: U-251
NCI-H460 = test system: NCI-H460
SNB-19 = test system: SNB-19
SW-620 = test system: SW-620
RXF 393 = test system: RXF 393
KM12 = test system: KM12
HOP-92 = test system: HOP-92
Malme-3M = test system: Malme-3M
OVCAR-3 = test system: OVCAR-3
SK-MEL-2 = test system: SK-MEL-2
DMS-273 = test system: DMS-273
SN12C = test system: SN12C
SF-539 = test system: SF-539
A549 = test system: A549
NCI-H522 = test system: NCI-H522
UACC-62 = test system: UACC-62
MOLT-4 = test system: MOLT-4
COLO 205 = test system: COLO 205
HL-60 = test system: HL-60
MCF7 = test system: MCF7
NCI-H226 = test system: NCI-H226
HOP-18 = test system: HOP-18
HCT-116 = test system: HCT-116
SNB-78 = test system: SNB-78
CCRF-CEM = test system: CCRF-CEM
XF498 = test system: XF498
SK-MEL-5 = test system: SK-MEL-5
SF-268 = test system: SF-268
SNB-75 = test system: SNB-75
HOP-62 = test system: HOP-62
LOX IMVI = test system: LOX IMVI
EKVX = test system: EKVX
UO-31 = test system: UO-31
NCI/ADR-RES = test system: NCI/ADR-RES
SK-OV-3 = test system: SK-OV-3
A498 = test system: A498
SF-295 = test system: SF-295
OVCAR-5 = test system: OVCAR-5
UACC-257 = test system: UACC-257
M19-MEL = test system: M19-MEL
HT-29 = test system: HT-29
RPMI-8226 = test system: RPMI-8226
OVCAR-8 = test system: OVCAR-8
TK-10 = test system: TK-10
SR = test system: SR
ACHN = test system: ACHN
LXFL 529 = test system: LXFL 529
786-0 = test system: 786-0
M14 = test system: M14

Measured: GI50

COc1ccc(C2COc3c(ccc(O)c3C)C2)cc1OC (stereo not given)
57.8 µM: HCT-15
inactive: HCC 2998 27.9 µM | KM-20L2 91.6 µM | DMS-114 24.4 µM | DLD-1 42 µM | OVCAR-4 89.3 µM | K562 59.6 µM | SK-MEL-28 121 µM | NCI-H23 67.8 µM | IGROV-1 130 µM | CAKI-1 112 µM | U-251 64.6 µM | NCI-H460 62.7 µM | SNB-19 143 µM | SW-620 81.3 µM | RXF 393 24 µM | KM12 102 µM | HOP-92 53.5 µM | Malme-3M 121 µM | OVCAR-3 70.1 µM | SK-MEL-2 69.7 µM | DMS-273 57.4 µM | SN12C 104 µM | SF-539 106 µM | A549 60.8 µM | NCI-H522 39.7 µM | UACC-62 96.2 µM | MOLT-4 29.2 µM | COLO 205 61.7 µM | HL-60 21.6 µM | MCF7 81.7 µM | NCI-H226 57.5 µM | HOP-18 24.2 µM | HCT-116 48.3 µM | SNB-78 157 µM | CCRF-CEM 40.7 µM | XF498 22.9 µM | SK-MEL-5 11.7 µM | SF-268 106 µM | SNB-75 38.1 µM | HOP-62 163 µM | LOX IMVI 12.9 µM | EKVX 136 µM | UO-31 66.1 µM | NCI/ADR-RES 110 µM | SK-OV-3 > 187 µM | A498 11.2 µM | SF-295 58.9 µM | OVCAR-5 119 µM | UACC-257 149 µM | M19-MEL 83 µM | HT-29 65.8 µM | RPMI-8226 17.7 µM | OVCAR-8 113 µM

OC(c1ccccc1Br)(c1ccccc1Br)C(F)(F)F
active: HCC 2998 0.322 µM
30.4 µM: HCT-15
inactive: KM-20L2 24.5 µM | DMS-114 20.8 µM | DLD-1 37.5 µM | OVCAR-4 29.2 µM | SK-MEL-28 27.7 µM | TK-10 52.1 µM | SR 24.6 µM | NCI-H23 27.9 µM | IGROV-1 40.4 µM | CAKI-1 48.1 µM | U-251 18.6 µM | NCI-H460 27.7 µM | ACHN 20.1 µM | SNB-19 > 10 µM | SW-620 19.4 µM | RXF 393 19.6 µM | LXFL 529 42.1 µM | KM12 15.6 µM | Malme-3M 24 µM | OVCAR-3 26.9 µM | SK-MEL-2 18.5 µM | DMS-273 20.3 µM | SN12C 19.1 µM | SF-539 33.2 µM | A549 34.1 µM | NCI-H522 11.6 µM | UACC-62 26.8 µM | MOLT-4 14.9 µM | COLO 205 18.2 µM | NCI-H226 10.9 µM | HOP-18 42.8 µM | HCT-116 19.7 µM | 786-0 19.1 µM | M14 34.7 µM | XF498 23.1 µM | SF-268 20.9 µM | SNB-75 33 µM | HOP-62 28 µM | LOX IMVI 20.9 µM | EKVX 33.9 µM | UO-31 26.7 µM | SK-OV-3 36.5 µM | A498 30.1 µM | SF-295 21.1 µM | OVCAR-5 25.4 µM | UACC-257 37.8 µM | M19-MEL 23.9 µM | HT-29 14.7 µM | OVCAR-8 39.4 µM

COC(=O)CCC(NC(=S)N/N=C(\C)c1cccs1)C(=O)OC (stereo not given)
> 100 µM: HCT-15
inactive: HCC 2998 > 100 µM | KM-20L2 > 100 µM | DMS-114 > 100 µM | DLD-1 > 100 µM | OVCAR-4 > 100 µM | K562 > 100 µM | SK-MEL-28 > 100 µM | TK-10 > 100 µM | NCI-H23 > 100 µM | IGROV-1 > 100 µM | U-251 > 100 µM | NCI-H460 > 100 µM | ACHN > 100 µM | SNB-19 > 100 µM | SW-620 > 100 µM | RXF 393 > 100 µM | LXFL 529 > 100 µM | KM12 > 100 µM | HOP-92 > 100 µM | Malme-3M > 100 µM | OVCAR-3 > 100 µM | SK-MEL-2 > 100 µM | DMS-273 > 100 µM | SN12C > 100 µM | SF-539 > 100 µM | A549 > 100 µM | NCI-H522 > 100 µM | UACC-62 > 100 µM | COLO 205 > 100 µM | NCI-H226 > 100 µM | HOP-18 > 100 µM | HCT-116 > 100 µM | SNB-78 > 100 µM | 786-0 > 100 µM | M14 > 100 µM | XF498 > 100 µM | SK-MEL-5 > 100 µM | SF-268 > 100 µM | SNB-75 > 100 µM | HOP-62 > 100 µM | LOX IMVI > 100 µM | EKVX > 100 µM | UO-31 > 100 µM | SK-OV-3 > 100 µM | A498 > 100 µM | SF-295 > 100 µM | OVCAR-5 > 100 µM | UACC-257 > 100 µM | M19-MEL > 100 µM | HT-29 > 100 µM | OVCAR-8 > 100 µM

Nc1nc(N)c2ncn(CC(CO)CC(c3ccccc3)P(=O)(O)O)c2n1 (stereo not given)
> 100 µM: HCT-15
inactive: HCC 2998 > 100 µM | KM-20L2 > 100 µM | DMS-114 > 100 µM | DLD-1 > 100 µM | K562 > 100 µM | SK-MEL-28 > 100 µM | TK-10 > 100 µM | NCI-H23 > 100 µM | IGROV-1 > 100 µM | CAKI-1 > 100 µM | U-251 > 100 µM | NCI-H460 > 100 µM | ACHN > 100 µM | SNB-19 > 100 µM | SW-620 > 100 µM | RXF 393 > 100 µM | KM12 > 100 µM | HOP-92 > 100 µM | Malme-3M > 100 µM | OVCAR-3 > 100 µM | SK-MEL-2 > 100 µM | DMS-273 > 100 µM | SN12C > 100 µM | SF-539 > 100 µM | A549 > 100 µM | NCI-H522 > 100 µM | UACC-62 > 100 µM | MOLT-4 > 100 µM | COLO 205 > 100 µM | HL-60 > 100 µM | NCI-H226 > 100 µM | HOP-18 > 100 µM | HCT-116 > 100 µM | SNB-78 > 100 µM | M14 2.43 µM | CCRF-CEM > 100 µM | XF498 > 100 µM | SK-MEL-5 > 100 µM | SF-268 > 100 µM | SNB-75 > 100 µM | HOP-62 > 100 µM | LOX IMVI > 100 µM | UO-31 > 100 µM | SK-OV-3 > 100 µM | A498 > 100 µM | SF-295 > 100 µM | OVCAR-5 > 100 µM | UACC-257 > 100 µM | M19-MEL > 100 µM | HT-29 > 100 µM | RPMI-8226 > 100 µM | OVCAR-8 > 100 µM

NNc1nnc(-c2ccccc2)nc1Cc1ccccc1
4.13 µM: HCT-15
inactive: HCC 2998 3.39 µM | KM-20L2 3.84 µM | DMS-114 3.17 µM | DLD-1 13.4 µM | OVCAR-4 9.14 µM | K562 5.65 µM | SK-MEL-28 7.71 µM | TK-10 9.35 µM | SR 4.43 µM | NCI-H23 6.03 µM | IGROV-1 10.9 µM | CAKI-1 13.8 µM | U-251 6.87 µM | NCI-H460 4.17 µM | ACHN 4.04 µM | SNB-19 6.62 µM | SW-620 5.13 µM | RXF 393 5.53 µM | LXFL 529 3.85 µM | KM12 8.3 µM | Malme-3M 3.56 µM | OVCAR-3 3.61 µM | SK-MEL-2 6.35 µM | DMS-273 7.26 µM | SN12C 5.79 µM | SF-539 4.45 µM | A549 6.41 µM | NCI-H522 5.4 µM | UACC-62 3.62 µM | MOLT-4 3.19 µM | COLO 205 7.53 µM | HL-60 4.32 µM | NCI-H226 2.37 µM | HOP-18 2.03 µM | HCT-116 7.18 µM | M14 8.57 µM | CCRF-CEM 2.64 µM | XF498 7.41 µM | SK-MEL-5 12.3 µM | SF-268 3.64 µM | HOP-62 2.69 µM | LOX IMVI 3.56 µM | EKVX 22.3 µM | UO-31 3.81 µM | SK-OV-3 14.3 µM | OVCAR-5 6.65 µM | M19-MEL 7.41 µM | HT-29 8.3 µM | OVCAR-8 4.52 µM
